Data set [1] can be described thus: Test A: Sequestration of AcH in a cell-free system. The format is biochemical. The note with it: AcH 40 nmol, compound 400 nmol, 4.0 mM DTT, pH 7.4, 30 minute incubation at 37° C.; compared with 1 (positive control); FIG. 3. The procedure: Test A: Sequestration of AcH in a cell-free system. AcH (40 nmol) was incubated without (control) and with representative compounds of the invention (400 nmol) in a reaction mixture containing 4.0 mM dithiothreitol (DTT) and 40 mM potassium phosphate buffer (pH 7.4) in a total volume of 1.2 ml. The AcH remaining after a 30 minute incubation period at 37° C. was quantified by headspace GC analysis. DTT was included in the reaction mixture to maintain the thiols in their reduced state.

For a further data set, the system named is rat hepatocytes. In words: Test B: Sequestration of AcH in a hepatocyte system. The format is cell-based. The note with it: ethanol 20 mM; for lowering of the concentration of ethanol-derived AcH: compound 1.0 mM (1/20 molar concentration of ethanol), at two hrs, vs ethanol control without dipeptide, FIG. 4. The protocol:
Test B: Sequestration of AcH in a hepatocyte system.
Hepatocytes from male Wistar rats were isolated and cultured under conditions previously described. On culture day two, ethanol and representative compounds of the invention were added to the culture medium to final concentrations of 20 mM and 1.0 mM, respectively. After 2 hours, 1.0 ml of medium was removed and added to a semicarbazide/sodium azide mixture and frozen until assayed for AcH by gas chromatography. AcH was measured before the addition of ethanol and representative compounds of the invention and 2 hours after incubation, and the values compared against ethanol control without dipeptides. In experiments with cyanamide (to inhibit AlDH), the cyanamide was added with the ethanol to give a final concentration in the culture medium of 50 mM. Results are depicted in FIGS. 4 and 5.

The conditions of data set [2]: cited from earlier work; for AcH sequestration (trapping) in vivo: earlier studies (Nagasawa et al., J. Med. Chem, 1987).

We go through 11 compounds from patent US6686336B2, “N-terminal D(-)-penicillamine peptides as aldehyde sequestration agents” (Federal Government as represented by the Department of …, priority 2000, dated 2004).

By melting point is commonly meant the temperature, or range, at which the solid turns liquid. `CC(N)(CC(=O)[C@H](N)C(C)(C)S)C(=O)O.Cl` (stereo partly drawn) [Compound 6c, D-Penicillamyl-α-aminoisobutyric acid hydrochloride] gave a melting point of 145 to 148 °C.
Consider `C[C@@H](O)[C@H](N)C(=O)O` [threonine], for which the “AcH sequestering activity (AcH remaining by headspace GC)” value in data set [1] was “totally without AcH sequestering activity”.
Take `CC(C)(S)[C@@H](N)C(=O)NCCC(=O)O.Cl` [Compound 6d, D-Penicillamyl-β-alanine Hydrochloride]: the melting point lay within 71 to 75 °C. Also, in the data set on rat hepatocytes, the “lowering of the concentration of ethanol-derived AcH” value was found to be 84%.
As for `NC(C(=O)O)C1(S)CCCC1` (racemic) [Compound 2, β,β-tetramethylene-DL-cysteine], the “AcH sequestration (trapping) in vivo” value in data set [2] is on record as “best β-mercapto-α-amino acid sequestration agents for AcH in vivo”.
Turning to `N[C@@H](CCS)C(=O)O` [L-Homocysteine], the “AcH sequestering activity (AcH remaining by headspace GC)” value in data set [1] is on record as “comparable to 1”. For the same compound, in data set [2], the “AcH sequestration (trapping) in vivo” value is reported as “not to be an effective AcH-trapping agent in vivo”. In data set [2] (given as reason for lack of AcH trapping), the metabolism in vivo result is on record as “metabolized too rapidly in vivo”.
Take `CC(C)[C@H](NC(=O)[C@H](N)C(C)(C)S)C(=O)O.Cl`: the melting point is 263 to 265.5 °C (dec.).
`CC(C)(S)[C@@H](N)C(=O)NCC(=O)O.Cl` [Compound 6a, D-Penicillamylglycine Hydrochloride] came in with a melting point of 67 to 71 °C. Further, the “lowering of the concentration of ethanol-derived AcH” value in the data set with rat hepatocytes came to 79%. Moreover, the “reduction of ethanol-derived AcH concentration in presence of cyanamide” value in the data set with rat hepatocytes (compound 1.0 mM, cyanamide (AlDH inhibitor) 50 mM, 2 hours, vs control without dipeptide, FIG. 5) came to 33%.
For the compound `N#CN` [cyanamide], the “increase in ethanol-derived AcH” value with rat hepatocytes (cyanamide in incubation medium (50 mM), control without dipeptide, FIG. 5) turned out to be 45 fold.
With `CSCC[C@H](N)C(=O)O` [Methionine], in data set [1], the “AcH sequestering activity (AcH remaining by headspace GC)” value is “totally without AcH sequestering activity”.
For `CC(C)(S)[C@@H](N)C(=O)O` [Compound 1, D(−)-penicillamine], the “AcH sequestration (trapping) in vivo” value in data set [2] was “best β-mercapto-α-amino acid sequestration agents for AcH in vivo”.
Regarding `N[C@@H](CO)C(=O)O` [serine], in data set [1], the “AcH sequestering activity (AcH remaining by headspace GC)” value is “totally without AcH sequestering activity”.
